Measured values published in PubChem BioAssay AID1919013 (Molecular Pharmacology Branch, DTP, NCI, 2023).
Several values for one entry are separate records, joined by “and”; a condition that tells them apart may be missing. Identical values can stand only once.

System: LG0703-F498-PDC complex spheroid growth
Test: Anticancer human tumor LG0703-F498-PDC patient-derived lung adenocarcinoma cell line growth inhibition [AhR]
Details: for viability, T/C: stronger effect = lower value
Summary of the method: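 Agents were dosed in half-log steps down from roughly clinical Cmax, or from 10 microM where Cmax was unknown, alone and with AhR antagonists. Read-out: percent test/control growth of tumor spheroids containing HUVEC and MSC stromal cells.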

[1] = curve of first compound, second compound 0.1 µM
[2] = curve of first compound, second compound 0.316 µM
[3] = curve of first compound, second compound 1 µM
[4] = curve of first compound, second compound 3.16 µM
[5] = curve of first compound, second compound 10 µM
[6] = second compound 0.1 µM, first compound 0.0316 µM
[7] = second compound 0.1 µM, first compound 0.1 µM
[8] = second compound 0.1 µM, first compound 0.316 µM
[9] = second compound 0.1 µM, first compound 1 µM
[10] = second compound 0.1 µM, first compound 3.16 µM
[11] = second compound 0.1 µM, first compound 10 µM
[12] = second compound 0.316 µM, first compound 0.0316 µM
[13] = second compound 0.316 µM, first compound 0.1 µM
[14] = second compound 0.316 µM, first compound 0.316 µM
[15] = second compound 0.316 µM, first compound 1 µM
[16] = second compound 0.316 µM, first compound 3.16 µM
[17] = second compound 0.316 µM, first compound 10 µM
[18] = second compound 1 µM, first compound 0.0316 µM
[19] = second compound 1 µM, first compound 0.1 µM
[20] = second compound 1 µM, first compound 0.316 µM
[21] = second compound 1 µM, first compound 1 µM
[22] = second compound 1 µM, first compound 3.16 µM
[23] = second compound 1 µM, first compound 10 µM
[24] = second compound 3.16 µM, first compound 0.0316 µM
[25] = second compound 3.16 µM, first compound 0.1 µM
[26] = second compound 3.16 µM, first compound 0.316 µM
[27] = second compound 3.16 µM, first compound 1 µM
[28] = second compound 3.16 µM, first compound 3.16 µM
[29] = second compound 3.16 µM, first compound 10 µM
[30] = second compound 10 µM, first compound 0.0316 µM
[31] = second compound 10 µM, first compound 0.1 µM
[32] = second compound 10 µM, first compound 0.316 µM
[33] = second compound 10 µM, first compound 1 µM
[34] = second compound 10 µM, first compound 3.16 µM
[35] = second compound 10 µM, first compound 10 µM
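Note: luminescence taken as a proxy for viable cell amount.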
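Throughout, for viability, T/C: percent of DMSO vehicle control where 100% means growth equal to vehicle.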

| SMILES | IC50 [1] [µM] | IC50 [2] [µM] | IC50 [3] [µM] | IC50 [4] [µM] | IC50 [5] [µM] | viability, T/C [6] [%] | viability, T/C [7] [%] | viability, T/C [8] [%] | viability, T/C [9] [%] | viability, T/C [10] [%] | viability, T/C [11] [%] | viability, T/C [12] [%] | viability, T/C [13] [%] | viability, T/C [14] [%] | viability, T/C [18] [%] | viability, T/C [19] [%] | viability, T/C [24] [%] | viability, T/C [25] [%] | viability, T/C [30] [%] | viability, T/C [31] [%] | also measured |
| --- | --- | --- | --- | --- | --- | --- | --- | --- | --- | --- | --- | --- | --- | --- | --- | --- | --- | --- | --- | --- | --- |
| CC(C)c1c(-c2ccccc2)nc2c(C#N)c[nH]n2c1=O + CC(CO)NC(=O)c1cc(-c2ccc(Cl)cc2)nn(-c2cnn(C)c2)c1=O | > 10 | > 10 | > 10 | > 10 | > 10 | 94.2 | 96.5 | 87.5 | 86.1 | 87.3 | 80.8 | 88.2 | 95.5 | 100 | 82 | 88.7 | 70.3 | 96.7 | 73 | 76.5 | viability, T/C [15]: 78.9%; viability, T/C [16]: 84.1%; viability, T/C [17]: 78.5%; viability, T/C [20]: 83.8%; viability, T/C [21]: 87.3%; viability, T/C [22]: 83.4%; viability, T/C [23]: 82%; viability, T/C [26]: 73.3%; viability, T/C [27]: 69%; viability, T/C [28]: 85%; viability, T/C [29]: 78.1%; viability, T/C [32]: 66.2%; viability, T/C [33]: 69.2%; viability, T/C [34]: 67.4%; viability, T/C [35]: 69.4% |
| O=C(c1cc(Cc2n[nH]c(=O)c3ccccc23)ccc1F)N1CCN(C(=O)C2CC2)CC1 + Cc1ccccc1N=Nc1ccc(NC(=O)c2ccnn2C)c(C)c1 | > 10 | > 10 | > 10 | > 10 | > 10 | 89.3 | 94.8 | 89.8 | 93.8 | 85.7 | 84.6 | 96.5 | 119 | 95.7 | 86.7 | 98 | 82.1 | 97.1 | 85.6 | 93 | viability, T/C [15]: 102%; viability, T/C [16]: 102%; viability, T/C [17]: 79.9%; viability, T/C [20]: 88.7%; viability, T/C [21]: 94.4%; viability, T/C [22]: 90.2%; viability, T/C [23]: 82.2%; viability, T/C [26]: 83.5%; viability, T/C [27]: 86.9%; viability, T/C [28]: 83.9%; viability, T/C [29]: 73.9%; viability, T/C [32]: 94.5%; viability, T/C [33]: 77.8%; viability, T/C [34]: 72.3%; viability, T/C [35]: 70.5% |
| CC[C@@]1(O)C(=O)OCc2c1cc1n(c2=O)Cc2cc3c(CN(C)C)c(O)ccc3nc2-1 | – | – | – | – | – | – | – | – | – | – | – | – | – | – | – | – | – | – | – | – | viability, T/C (compound 0.000316 µM): 104% and 108% and 106%; viability, T/C (compound 0.001 µM): 112% and 105% and 93.5%; viability, T/C (compound 0.00316 µM): 100% and 102% and 95.9%; viability, T/C (compound 0.01 µM): 90.5% and 93.7% and 90%; viability, T/C (compound 0.0316 µM): 85.8% and 111% and 87.9%; viability, T/C (compound 0.1 µM): 68.1% and 69.4% and 73.8%; IC50 (curve of compound): > 0.1 µM |

Continued, in another order:

| IC50 [1] [µM] | IC50 [2] [µM] | IC50 [3] [µM] | IC50 [4] [µM] | IC50 [5] [µM] | SMILES | viability, T/C [6] [%] | viability, T/C [7] [%] | viability, T/C [8] [%] | viability, T/C [9] [%] | viability, T/C [10] [%] | viability, T/C [11] [%] | viability, T/C [12] [%] | viability, T/C [13] [%] | viability, T/C [14] [%] | viability, T/C [18] [%] | viability, T/C [19] [%] | viability, T/C [24] [%] | viability, T/C [25] [%] | viability, T/C [30] [%] | viability, T/C [31] [%] | also measured |
| --- | --- | --- | --- | --- | --- | --- | --- | --- | --- | --- | --- | --- | --- | --- | --- | --- | --- | --- | --- | --- | --- |
| 0.687 | 0.552 | 0.564 | 0.573 | 0.68 | COc1cccc2c1C(=O)c1c(O)c3c(c(O)c1C2=O)CC(O)(C(=O)CO)CC3OC1CC(N)C(O)C(C)O1 (configuration not stated) + Cc1ccccc1N=Nc1ccc(NC(=O)c2ccnn2C)c(C)c1 | 92.4 | 90 | 69.9 | 40.7 | 11.5 | 0.88 | 93.5 | 89.7 | 59.3 | 79.1 | 95.6 | 92.5 | 85.9 | 80.8 | 82.3 | viability, T/C [15]: 38.2%; viability, T/C [16]: 11.3%; viability, T/C [17]: 0.75%; viability, T/C [20]: 64.9%; viability, T/C [21]: 32.1%; viability, T/C [22]: 10.6%; viability, T/C [23]: 0.84%; viability, T/C [26]: 67.2%; viability, T/C [27]: 34.2%; viability, T/C [28]: 8.26%; viability, T/C [29]: 0.48%; viability, T/C [32]: 69.9%; viability, T/C [33]: 40.4%; viability, T/C [34]: 5.43%; viability, T/C [35]: 2.16% |
| 6.26 | 6.52 | 5.65 | 5.77 | 7.19 | CC1(C)CCC(CN2CCN(c3ccc(C(=O)NS(=O)(=O)c4ccc(NCC5CCOCC5)c([N+](=O)[O-])c4)c(Oc4cnc5[nH]ccc5c4)c3)CC2)=C(c2ccc(Cl)cc2)C1 + Cc1ccccc1N=Nc1ccc(NC(=O)c2ccnn2C)c(C)c1 | 102 | 94.5 | 94.1 | 94.3 | 95.2 | 19.1 | 98.7 | 104 | 100 | 96.8 | 87 | 79 | 90.9 | 95 | 86 | viability, T/C [15]: 89.5%; viability, T/C [16]: 92.9%; viability, T/C [17]: 24.5%; viability, T/C [20]: 107%; viability, T/C [21]: 91.1%; viability, T/C [22]: 78.5%; viability, T/C [23]: 22.2%; viability, T/C [26]: 82.9%; viability, T/C [27]: 107%; viability, T/C [28]: 75.4%; viability, T/C [29]: 26.8%; viability, T/C [32]: 96.2%; viability, T/C [33]: 76.2%; viability, T/C [34]: 83.3%; viability, T/C [35]: 37.7% |
| > 0.1 | > 0.1 | > 0.1 | > 0.1 | > 0.1 | CC[C@@]1(O)C(=O)OCc2c1cc1n(c2=O)Cc2cc3c(CN(C)C)c(O)ccc3nc2-1 + CC(CO)NC(=O)c1cc(-c2ccc(Cl)cc2)nn(-c2cnn(C)c2)c1=O | 83.2 | 66.1 | – | – | – | – | 73.2 | 57.2 | – | 78.6 | 61.2 | 58.6 | 52.9 | 63.4 | 51.9 | viability, T/C (second compound 0.1 µM, first compound 0.000316 µM): 89%; viability, T/C (second compound 0.1 µM, first compound 0.001 µM): 101%; viability, T/C (second compound 0.1 µM, first compound 0.00316 µM): 86.7%; viability, T/C (second compound 0.1 µM, first compound 0.01 µM): 90.6%; viability, T/C (second compound 0.316 µM, first compound 0.000316 µM): 96%; viability, T/C (second compound 0.316 µM, first compound 0.001 µM): 99.5%; viability, T/C (second compound 0.316 µM, first compound 0.00316 µM): 92.3%; viability, T/C (second compound 0.316 µM, first compound 0.01 µM): 80.9%; viability, T/C (second compound 1 µM, first compound 0.000316 µM): 80.8%; viability, T/C (second compound 1 µM, first compound 0.001 µM): 93.2%; viability, T/C (second compound 1 µM, first compound 0.00316 µM): 84.5%; viability, T/C (second compound 1 µM, first compound 0.01 µM): 77.4%; viability, T/C (second compound 3.16 µM, first compound 0.000316 µM): 76%; viability, T/C (second compound 3.16 µM, first compound 0.001 µM): 86.3%; viability, T/C (second compound 3.16 µM, first compound 0.00316 µM): 90.8%; viability, T/C (second compound 3.16 µM, first compound 0.01 µM): 79.2%; viability, T/C (second compound 10 µM, first compound 0.000316 µM): 79.2%; viability, T/C (second compound 10 µM, first compound 0.001 µM): 79.7%; viability, T/C (second compound 10 µM, first compound 0.00316 µM): 86.6%; viability, T/C (second compound 10 µM, first compound 0.01 µM): 66.5% |
| 3.65 | 4.79 | 5.26 | 3.18 | 2.91 | COc1ccc([C@@H](O)c2cc(-c3ncnc4cc(N5CCOCC5)ccc34)c(F)cc2Cl)nn1 + CC(CO)NC(=O)c1cc(-c2ccc(Cl)cc2)nn(-c2cnn(C)c2)c1=O | 88.9 | 89.9 | 93.5 | 76 | 53.5 | 31.7 | 94.2 | 95.8 | 81 | 97.4 | 95.1 | 93.1 | 86.4 | 78.5 | 88.3 | viability, T/C [15]: 74.5%; viability, T/C [16]: 64.5%; viability, T/C [17]: 30.5%; viability, T/C [20]: 88.1%; viability, T/C [21]: 83.8%; viability, T/C [22]: 61.6%; viability, T/C [23]: 34.4%; viability, T/C [26]: 88.1%; viability, T/C [27]: 68.3%; viability, T/C [28]: 51.2%; viability, T/C [29]: 32.1%; viability, T/C [32]: 77.1%; viability, T/C [33]: 69.5%; viability, T/C [34]: 48.5%; viability, T/C [35]: 33.4% |
